Measured values reported in patent publication US7410980B2, “Crystals of taxane derivative and process for their production” (Daiichi Pharmaceutical Co., Ltd., priority 2001, dated 2008).

Assay: moisture absorption behavior (microbalance, automatic moisture adsorption apparatus)
Type: physicochemical
Method: Moisture absorption behaviors of the crystals of the present invention (β crystals) and an amorphous substance were measured under relative humidity of from 30 to 90%. Each sample of about 20 mg was used and the relative humidity was changed from 30% with 10% pitch by using a microbalance (automatic moisture adsorption apparatus). The measurement temperature was 25° C. An amount of the change was determined when the sample gave the change of 0.03% or less for 30 minutes (maximum retention time: 180 minutes).

| SMILES | hygroscopicity (compared with amorphous substance, as shown in the examples) | additional moisture absorbed as compared to the crystals of the present invention (β crystals) (under high humidity, relative humidity 30 to 90%, 25° C., about 20 mg sample) |
| --- | --- | --- |
| CC(=O)O[C@@]12CO[C@@H]1CC[C@@]1(C)[C@@H]3O[C@H](CN(C)C)O[C@@H]3C3=C(C)[C@@H](OC(=O)[C@H](O)[C@@H](NC(=O)OC(C)(C)C)c4ncccc4F)C[C@@](O)([C@@H](OC(=O)c4ccccc4)[C@@H]12)C3(C)C [β crystals, (1S,2S,3R,4S,5R,8R,9S,10R,13S)-4-acetoxy-2-benzoyloxy-9,10-[(1S)-2-(dimethylamino)ethylidenedioxy]-5,20-epoxy-1-hydroxytax-11-en-13-yl (2R,3S)-3-(tert-butoxycarbonylamino)-3-(3-fluoro-2-pyridyl)-2-hydroxypropionate] | lower than that of an amorphous substance | – |
| CC(=O)O[C@@]12CO[C@@H]1CC[C@@]1(C)[C@@H]3O[C@H](CN(C)C)O[C@@H]3C3=C(C)[C@@H](OC(=O)[C@H](O)[C@@H](NC(=O)OC(C)(C)C)c4ncccc4F)C[C@@](O)([C@@H](OC(=O)c4ccccc4)[C@@H]12)C3(C)C [amorphous substance, (1S,2S,3R,4S,5R,8R,9S,10R,13S)-4-acetoxy-2-benzoyloxy-9,10-[(1S)-2-(dimethylamino)ethylidenedioxy]-5,20-epoxy-1-hydroxytax-11-en-13-yl (2R,3S)-3-(tert-butoxycarbonylamino)-3-(3-fluoro-2-pyridyl)-2-hydroxypropionate] | – | about 1% |
